These are literature values, as cited in US6559183B1, “Nano-emulsion of 5-aminolevulinic acid” (ASAT AG Applied Science & Technology, priority 1998, dated 2003).

For this data set the following is noted: high concentrations required for clinical application, neutral to basic pH range, 25 h.

For `NCC(=O)CCC(=O)O` [aminolevulinic acid, 5-aminolevulinic acid], the “stability in aqueous solutions” value was “unstable”.
